Results reported in article PMC8167858, “Crystal structure of a novel homodimeric L‐ribulose 3‐epimerase from Methylomonus sp” (FEBS Open Bio, 2021).
Each block holds one molecule with its values, some of them ahead of it.

Columns and labels:
[1] = target: T1, MetLRE (MetLRE_his) (Methylomonas sp. DH-1, UniProt A0A172U6X0); experiment: thermal shift assay (SYPRO Orange); assay type: binding; details: melting temperature, not a shift: reference with Mn alone Tm1_Mn 72.5 ± 0.03 °C; 4 mM D-allulose, 0.8 mM MnCl2, 40 mM Tris/HCl pH 7.6; two-step unfolding, first transition
T1 construct: gene AYM39_05640
T1 sequence (A0A172U6X0 1-286): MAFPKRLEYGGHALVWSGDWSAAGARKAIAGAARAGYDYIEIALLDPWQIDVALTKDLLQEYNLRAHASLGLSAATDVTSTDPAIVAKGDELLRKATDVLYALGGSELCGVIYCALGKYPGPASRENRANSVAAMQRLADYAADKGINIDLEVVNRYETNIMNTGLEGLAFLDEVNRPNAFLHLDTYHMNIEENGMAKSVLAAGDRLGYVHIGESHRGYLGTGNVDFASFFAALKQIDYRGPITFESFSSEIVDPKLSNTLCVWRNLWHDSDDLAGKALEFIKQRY
Source text: thermal shift assay (SYPRO Orange) on MetLRE (MetLRE_his) | in the presence of Mn and D‐allulose (cyan line)

[2] = target: T2, his_MetLRE (Methylomonas sp. DH-1, UniProt A0A172U6X0); experiment: X-ray crystal structure, […] Å; assay type: binding; details: 0.1 M HEPES pH 7.5, PEG 8000, 8% ethylene glycol
T2 construct: gene AYM39_05640; full length 286 aa, N-terminal His-tag from pET15b (kept), E. coli BL21(DE3), homodimer
T2 sequence (A0A172U6X0 1-286): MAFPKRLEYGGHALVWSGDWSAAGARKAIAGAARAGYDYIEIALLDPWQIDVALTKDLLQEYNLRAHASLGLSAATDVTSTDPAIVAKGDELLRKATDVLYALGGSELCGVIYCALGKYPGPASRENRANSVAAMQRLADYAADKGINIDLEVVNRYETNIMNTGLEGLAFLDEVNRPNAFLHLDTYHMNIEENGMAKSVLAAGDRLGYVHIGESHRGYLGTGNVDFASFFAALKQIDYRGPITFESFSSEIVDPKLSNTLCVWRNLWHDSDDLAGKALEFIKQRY

[3] = target: T1, MetLRE (MetLRE_his); experiment: X-ray crystal structure, […] Å; assay type: binding; details: crystal soaked in 15% (w/v) D-fructose; catalytic site with Mn2+; second site: beta-D-fructopyranose on surface near C terminus of Mol-A
[4] = target: T3, his_MetLRElong2 (Methylomonas sp. DH-1, UniProt A0A172U6X0, Y9I/Y37F/INS286TAIKTIELH/Y286L, form not given); experiment: X-ray crystal structure, […] Å; assay type: binding; details: 0.1 M HEPES pH 7.5, PEG 8000, 8% ethylene glycol
T3 construct: gene AYM39_05640; full length with Y9I, Y37F, Y286L and nine extra residues TAIKTIELH added after residue 286 at the C terminus; N-terminal His-tag from pET15b (kept), E. coli BL21(DE3), homodimer

[5] = target: T1, MetLRE (MetLRE_his); experiment: X-ray crystal structure, […] Å; assay type: binding
[6] = substrate: O=C(CO)[C@@H](O)[C@@H](O)CO; experiment: epimerization, product by HPLC; assay type: biochemical, Methylomonas sp. DH-1; details: 50 mM Tris/HCl pH 7.5, 1 mM MnCl2, 70 °C (conditions of the specificity assay)
[7] = target: the molecule itself; experiment: crystal structure; MetLRE_his crystals, alone and soaked with D-fructose, D-allulose or L-tagatose; reservoir 0.2 M MgCl2, 0.1 M Tris/HCl pH 8.5, 25% PEG3350, 293 K; two molecules in an asymmetric unit
[8] = target: the molecule itself; experiment: crystal structure; his_MetLRE (with D-allulose) and his_MetLRElong2 (with D-fructose); reservoir 0.1 M HEPES pH 7.5, 10% PEG 8000, 8% ethylene glycol; space group P1, six and eight molecules in an asymmetric unit; symmetry operation and PISA analysis

Tm1_MnA [1]: 78.5 ± 0.1 °C
Molecule: OCC1(O)OC[C@@H](O)[C@@H](O)[C@H]1O (stereo partly drawn) [D-allulose]
X-ray crystal structure, 2.05 Å [2]: His_MetLRE in complex with D‐allulose was obtained in the triclinic space group P1

Molecule: OCC1(O)OC[C@@H](O)[C@@H](O)[C@@H]1O (stereo partly drawn) [D-fructose]
X-ray crystal structure, 1.80 Å [3]: MetLRE_his in complex with D‐fructose was crystallized in the orthorhombic space group | X-ray crystal structure, 1.58 Å [4]: the crystal structure of his_MetLRElong2 in complex with D‐fructose was determined

Molecule: OCC1(O)OC[C@H](O)[C@@H](O)[C@H]1O (stereo partly drawn) [L-tagatose]
X-ray crystal structure, 1.70 Å ([5]; crystal soaked in 15% (w/v) L-tagatose, catalytic site of Mol-B with Mn2+, second site: alpha-L-tagatopyranose on surface of Mol-B): The bound L‐tagatose was found in the catalytic site of Mol‐B

Molecule: OCC1(O)OC[C@H](O)[C@@H](O)[C@@H]1O (stereo partly drawn) [L-sorbose]
X-ray crystal structure, 1.70 Å ([5]; formed from soaked L-tagatose in crystal, catalytic site of Mol-A with Mn2+): L‐sorbose (C3 epimer of L‐tagatose) was bound in the catalytic site

B1: MetLRE (MetLRE_his) (Methylomonas sp. DH-1) (protein)
chain: MAFPKRLEYGGHALVWSGDWSAAGARKAIAGAARAGYDYIEIALLDPWQIDVALTKDLLQEYNLRAHASLGLSAATDVTSTDPAIVAKGDELLRKATDVLYALGGSELCGVIYCALGKYPGPASRENRANSVAAMQRLADYAADKGINIDLEVVNRYETNIMNTGLEGLAFLDEVNRPNAFLHLDTYHMNIEENGMAKSVLAAGDRLGYVHIGESHRGYLGTGNVDFASFFAALKQIDYRGPITFESFSSEIVDPKLSNTLCVWRNLWHDSDDLAGKALEFIKQRY
Km [6]: 22.4 ± 3.4 mM | kcat [6]: 82.05 ± 5.77 s⁻¹

B2: C-terminal His-tagged L-ribulose 3-epimerase from Methylomonas sp. DH-1 (MetLRE_his) (enzyme, UniProt A0A172U6X0 1-286, looked up)
chain: MAFPKRLEYGGHALVWSGDWSAAGARKAIAGAARAGYDYIEIALLDPWQIDVALTKDLLQEYNLRAHASLGLSAATDVTSTDPAIVAKGDELLRKATDVLYALGGSELCGVIYCALGKYPGPASRENRANSVAAMQRLADYAADKGINIDLEVVNRYETNIMNTGLEGLAFLDEVNRPNAFLHLDTYHMNIEENGMAKSVLAAGDRLGYVHIGESHRGYLGTGNVDFASFFAALKQIDYRGPITFESFSSEIVDPKLSNTLCVWRNLWHDSDDLAGKALEFIKQRY
notes: L-ribulose 3-epimerase (putative sugar isomerase/epimerase) from Methylomonas sp; DH-1, NCBI WP_064020855.1, 286 a.a; synthesized gene amplified from the start codon to the last codon (Y286), then a linker beginning at Gly287 and the His tag; Linker and tag follow Y286: Gly287 and Ser288 are in the linker; also called putative sugar isomerase/epimerase; source: E. coli JM109 (pQE60, plasmid …)
stoichiometry N [7]: 2

B3: N-terminal His-tagged L-ribulose 3-epimerase from Methylomonas sp. DH-1 (his_MetLRE) (enzyme, UniProt A0A172U6X0 1-286, looked up)
chain: MAFPKRLEYGGHALVWSGDWSAAGARKAIAGAARAGYDYIEIALLDPWQIDVALTKDLLQEYNLRAHASLGLSAATDVTSTDPAIVAKGDELLRKATDVLYALGGSELCGVIYCALGKYPGPASRENRANSVAAMQRLADYAADKGINIDLEVVNRYETNIMNTGLEGLAFLDEVNRPNAFLHLDTYHMNIEENGMAKSVLAAGDRLGYVHIGESHRGYLGTGNVDFASFFAALKQIDYRGPITFESFSSEIVDPKLSNTLCVWRNLWHDSDDLAGKALEFIKQRY
notes: L-ribulose 3-epimerase from Methylomonas sp; DH-1, NCBI WP_064020855.1, 286 a.a; primers from the start codon to the stop codon; N-terminal tag and additional residues come from pET15b; source: E. coli BL21(DE3) (pET15b, plasmid pETMetLRE), purified (HisTrap HP); not shown: His tag, N-terminal, kept
stoichiometry N [8]: 2

B4: N-terminal His-tagged MetLRElong2 (his_MetLRE with nine additional residues TAIKTIELH at the C terminus and three mutations Y9I, Y37F, Y286L) (enzyme, Methylomonas sp. DH-1)
chain: MAFPKRLEIGGHALVWSGDWSAAGARKAIAGAARAGFDYIEIALLDPWQIDVALTKDLLQEYNLRAHASLGLSAATDVTSTDPAIVAKGDELLRKATDVLYALGGSELCGVIYCALGKYPGPASRENRANSVAAMQRLADYAADKGINIDLEVVNRYETNIMNTGLEGLAFLDEVNRPNAFLHLDTYHMNIEENGMAKSVLAAGDRLGYVHIGESHRGYLGTGNVDFASFFAALKQIDYRGPITFESFSSEIVDPKLSNTLCVWRNLWHDSDDLAGKALEFIKQRLTAIKTIELH
notes: L-ribulose 3-epimerase from Methylomonas sp; DH-1, NCBI WP_064020855.1, 286 a.a., with three mutations; nine additional residues at the C terminus, chosen on the tetramer form of AgDAE; source: E. coli BL21(DE3) (pET15b, plasmid pETMetLRElong2), purified (HisTrap HP); not shown: His tag, N-terminal, kept
stoichiometry N [8]: 2
